According to patent US20190192510A1, “GPR119 AGONIST” (NIPPON CHEMIPHAR CO., LTD., priority 2010, published 2019):
Like-named read-outs stand apart in the source and are kept apart here.

How the values were obtained:
[1] = biological target: T1, human GPR119 (Homo sapiens, UniProt Q8TDV5); assay: Intracellular cAMP increase in human GPR119 introduced cells (Pharmacological Experiments 1 and 2); type: cell-based; settings: for GPR119 agonist effect: result in words, refers to Tables 12 and 13
T1 sequence (Q8TDV5 1-335): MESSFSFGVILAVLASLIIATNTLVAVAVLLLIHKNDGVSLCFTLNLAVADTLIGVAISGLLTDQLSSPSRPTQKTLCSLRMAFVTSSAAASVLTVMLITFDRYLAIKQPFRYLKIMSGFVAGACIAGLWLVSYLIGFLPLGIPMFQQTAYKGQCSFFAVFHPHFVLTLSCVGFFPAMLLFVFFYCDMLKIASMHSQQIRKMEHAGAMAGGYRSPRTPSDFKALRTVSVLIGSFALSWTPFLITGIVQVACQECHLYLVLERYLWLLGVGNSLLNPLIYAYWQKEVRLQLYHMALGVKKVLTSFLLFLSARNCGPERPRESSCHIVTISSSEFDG
From the text: The GPR119 agonist effect is studied by measuring the effect of an analyte on increase of intracellular amount of cAMP in human GPR119 introduced cells. The testing method is described below.
Human GPR119 gene (NM 178471) is purchased from ATCC (ATCC No. 10807349), and is amplyfied according to PCR to form BamHI site at 5′ side and Apa I site at 3′ side. The forward side primer is […] (sequence No. 1), and the reverse side primer is […] (sequence No. 2). The PCR conditions are described below.
(§1) The double-stranded DNA is thermally denatured using a DNA polymerase (KOD-Plus-Ver. 2; TOYOBO #KOD-211) at 98° C. for 10 seconds in one cycle. The denatured single-stranded DNA is annealed with the primers at 55° C. for 30 seconds. The DNA is subjected to an extension reaction at 68° C. for 1 minute and 15 seconds. The above-mentioned steps are repeated in 35 cycles. The PCR product is inserted into pcDNA5/FRT/TO (Invitrogen #V6520-20) plasmid. Flp-in T-Rex-293 cells (Invitorogen #R78007) are transfected with the obtained plasmid. The method of transfection is conducted in accordance with the protocol of the product.
The stable cell line expressing human GPR119 prepared in the above-mentioned method is plated on a 96-well plate at the concentration of 2,500 cells/well using Dulbecco's Modified Eagle Medium (DMEM) containing 10% fetal bovine serum (FBS). Twenty-four hours after plating, tetracyclin (Invitrogen #Q10019) is added at the final concentration of 20 ng/mL to induce hGPR119 gene expression. Twenty-four hours after, the medium is removed, and the cells are stimulated with an assay buffer (0.5 mM IBMX PBS(−)) containing the test compound at 37° C. for 30 minutes. The amount of the intracellular cAMP is measured using a commercially available kit (HitHunter™ cAMP XS+ Assay: GE Healthcare #90007503) and a reader (FLUOstar Optima: BMG LABTECH). The test compound is dissolved in 100% DMSO, and added at the final concentration of 1%.
Human GPR119 gene (NM 178471) was purchased from ATCC (ATCC No. 10807349), and is amplyfied according to PCR to form BamHI site at 5′ side and Apa I site at 3′ side. The primers were […] (sequence No. 1) and […] (sequence No. 2). The PCR conditions are described below.
as §1, with “was” for “is”, “were” for “are”
The stable cell line expressing human GPR119 prepared in the above-mentioned method was plated on a 96-well plate at the concentration of 2,500 cells/well using Dulbecco's Modified Eagle Medium (DMEM) containing 10% fetal bovine serum (FBS). Twenty-four hours after plating, tetracyclin (Invitrogen #Q10019) was added at the final concentration of 20 ng/mL to induce hGPR119 gene expression. Twenty-four hours after, the medium was removed, and the cells were stimulated with an assay buffer (0.5 mM IBMX PBS (−)) containing the test compound at 37° C. for 30 minutes. The amount of the intracellular cAMP was measured using a commercially available kit (HitHunter™ cAMP XS+ Assay: GE Healthcare #90007503) and a reader (FLUOstar Optima: BMG LABTECH). The test compound was dissolved in 100% DMSO, and added at the final concentration of 1%.
The examination was performed by the method similar to Example 61 Pharmacological experiment 1-(1), 1-(2).

[2] = test system: normal mice; assay: Oral glucose tolerance test in normal mice (Pharmacological Experiment 3); type: in vivo
Experimental: Oral glucose tolerance is tested in normal mice.
In this experiment, the inhibitory effect of a test compound on glycemic excursions is examined after glucose administration in normal mice. The test methods are described below.
Male 9-week-old ICR mice, habituated to the experimental environment for two weeks, are fasted for 18 hours and used to this experiment. Mice are orally administered the analyte or vehicle (polyethylene glycol 400:ethanol:Tween 80=8:1:1). After 30 minutes, they were orally given glucose at the dose of 3 g/kg.
Blood is collected at just before the analyte or vehicle administration (−30 minutes), immediately before glucose challenge (0 minute), 20 minutes, 40 minutes, 60 minutes, and 120 minutes after glucose ingestion to determine blood glucose levels.
Inhibition rate (%) of the test compound versus vehicle in areas under the glycemic excursion curve between 0 minute and 120 minutes after glucose challenge is determined. […]
Blood was collected at just before the test compound or vehicle administration (−30 min), immediately before glucose challenge (0 min), 20 min, 40 min, 60 min and 120 min after glucose ingestion and then blood glucose levels were determined.
Inhibition rate (%) of the test compound versus vehicle in areas under the glycemic excursion curve between 0 and 120 min after glucose challenge was determined.

[3] = Table 12, Flp-in T-Rex-293 cells stably expressing hGPR119, intracellular cAMP, 37° C. for 30 minutes, read-out: EC50

EC50 [1, 3] | melting point | SMILES | GPR119 agonist effect [1] | EC50 [1] | other results
13.8 nM | – | CC(C)(C)OC(=O)N1CCC(c2cnc(Cn3ccc4cc(S(C)(=O)=O)ccc43)cn2)CC1 [Example 9, tert-Butyl 4-[5-(5-methanesulfonylindol-1-ylmethyl)pyrazin-2-yl]piperidine-1-carboxylate] | excellent GPR119 agonist effect | – | Inhibition rate (%) ([2]; 1 mg/kg oral, male ICR mice, area under glycemic excursion curve 0-120 min after glucose 3 g/kg, versus vehicle): 31.1%; inhibitory effect on glycemic excursions ([2]; result in words, refers to Table 14): excellent inhibitory effect on glycemic excursions
110 nM | 176 to 179 °C | CC(C)(C)OC(=O)N1CC=C(c2cnc(COc3ccc(S(C)(=O)=O)c(F)c3F)cn2)CC1 [Example 18, tert-Butyl 4-[5-(2,3-difluoro-4-methanesulfonylphenoxymethyl)pyrazin-2-yl]-3,6-dihydro-2H-pyridine-1-carboxylate] | – | – | –

More lines, now with the values behind:

SMILES | EC50 [1, 3] | melting point | GPR119 agonist effect [1] | EC50 [1] | other results
CC(C)(C)OC(=O)N1CC=C(c2cnc(COc3ccc(-n4cncn4)cc3)cn2)CC1 [Example 13, tert-Butyl 4-[5-[4-(1,2,4-triazol-1-yl)phenoxymethyl]pyrazin-2-yl]-3,6-dihydro-2H-pyridine-1-carboxylate] | 130 nM | 152 to 154 °C | – | – | –
CC(C)(C)OC(=O)N1CCC(c2cnc(COc3ccc(S(C)(=O)=O)cc3)cn2)CC1 [Example 3, tert-Butyl 4-[5-(4-methanesulfonylphenoxymethyl)pyrazin-2-yl]piperidine-1-carboxylate] | – | – | – | 74.6 nM | –
CC(C)(C)OC(=O)N1CC=C(c2cnc(Cn3ccc4cc(S(C)(=O)=O)c(F)c(F)c43)cn2)CC1 [Example 20, tert-Butyl 4-[5-(6,7-difluoro-5-methanesulfonylindol-1-ylmethyl)pyrazin-2-yl]-3,6-dihydro-2H-pyridine-1-carboxylate] | – | – | excellent GPR119 agonist effect | 21.9 nM | –
CC(C)OC(=O)N1CCC(c2cnc(Cn3ccc4cc(-n5cnnn5)cc(F)c43)nc2)CC1 [Example 50, Isopropyl 4-[2-[7-fluoro-5-(tetrazol-1-yl)indol-1-ylmethyl]pyrimidin-5-yl]piperidine-1-carboxylate] | – | – | – | 17.4 nM | –
